Reference: patent US12188937B2, “Peptoid compound and detection chip coupled with peptoid compound on the surface” (BEIJING BOE TECHNOLOGY DEVELOPMENT CO., LTD., priority 2019, dated 2025)

Target: T1, EpCAM protein (Homo sapiens, UniProt P16422)
T1 construct: purchased Sino Biological Inc
T1 sequence (P16422 24-314): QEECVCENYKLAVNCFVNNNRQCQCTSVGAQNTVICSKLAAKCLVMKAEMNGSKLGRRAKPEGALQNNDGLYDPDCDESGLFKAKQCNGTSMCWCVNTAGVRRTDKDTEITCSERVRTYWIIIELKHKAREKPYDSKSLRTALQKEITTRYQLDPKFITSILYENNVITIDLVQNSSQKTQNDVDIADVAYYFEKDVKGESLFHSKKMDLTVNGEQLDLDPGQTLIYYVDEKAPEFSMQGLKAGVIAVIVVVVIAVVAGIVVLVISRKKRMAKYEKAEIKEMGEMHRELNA
Assay: surface plasmon resonance imaging (SPRi) test of binding ability of chip-spotted peptoid to EpCAM protein
Details: EpCAM 5.68-91.2 nM in PBS, binding 300 s, dissociation 300 s, fitted with BIAevalution 4.1, read-out: equilibrium dissociation constant KD

Kd: 18.7 nM
Structure (SMILES): NCCCCNC(=O)CN(CCc1ccc(-c2ccccc2)cc1)C(=O)CN(CCC(=O)O)C(=O)CNCCc1ccccc1 [Formula II]
